From ChEMBL document CHEMBL1153679, “Structural requirements for biological activity of the marine alkaloid ascididemin” (Bioorg Med Chem Lett, 1995)
Converted amounts (≈) assume the structure as drawn.

Legend:
HCT-116 = experiment: In vitro cytotoxic activity against human colon (HCT116) cell line; format: functional, cell-based
MCF7 = experiment: In vitro cytotoxic activity against human breast (MCF-7) cell line; format: functional, cell-based
Candida albicans [1] = experiment: Antimicrobial activity against Candida albicans fungus at a dose of 120 ug; format: functional
CHO [2] = experiment: Hypersensitivity Factor (HF2) towards DNA-double strand break repair deficient Chinese Hamster Ovary (CHO) cell-line EM9 versus wild type BR1([…]); format: functional, Cricetulus griseus
Trichophyton benhamiae = experiment: Antimicrobial activity against Trichophyton mentagrophytes fungus at a dose of 120 ug; format: functional
Bacillus subtilis = experiment: Antimicrobial activity against gram positive Bacillus subtilis at a dose of 120 ug; format: functional
Candida albicans [3] = experiment: Minimum inhibitory concentration against Candida albicans fungus at a dose of 120 microg; format: functional
Escherichia coli = experiment: Antimicrobial activity against gram negative Escherichia coli at a dose of 120 ug; format: functional
CHO [4] = experiment: In vitro cytotoxic activity against DNA-double strand break repair deficient Chinese Hamster Ovary (CHO) cell-line xrs-6; format: functional, cell-based; conditions: Cricetulus griseus
CHO [5] = experiment: Hypersensitivity Factor(HF) towards DNA-double strand break repair deficient Chinese Hamster Ovary (CHO) cell-line xrs-6 versus wild type BR1(IC50 BRI/IC50 xrs-6); format: functional, Cricetulus griseus
Amorphotheca resinae = experiment: Antimicrobial activity against Cladosporium resinae fungus at a dose of 120 ug; format: functional
Pseudomonas aeruginosa = experiment: Antimicrobial activity against gram negative Pseudomonas aeruginosa at a dose of 120 ug; format: functional
P388 = experiment: In vitro cytotoxic activity against mouse leukemia (P388 ) cell line; format: functional, cell-based
CHO [6] = experiment: In vitro cytotoxic activity against DNA-double strand break repair deficient Chinese Hamster Ovary (CHO) cell-line EM9; format: functional, cell-based; conditions: Cricetulus griseus
Candida albicans [7] = experiment: Minimum inhibitory concentration against Candida albicans fungus at a dose of 120 ug; format: functional
CHO [8] = experiment: In vitro cytotoxic activity towards DNA-double strand break repair deficient Chinese Hamster Ovary (CHO) cell-line EM9; format: functional, cell-based; conditions: Cricetulus griseus
CHO [9] = experiment: Hypersensitivity Factor(HF) against DNA-double strand break repair deficient Chinese Hamster Ovary (CHO) cell-line xrs-6 versus wild type BR1(IC50 BRI/IC50 xrs-6); format: functional, Cricetulus griseus
Candida albicans [10] = experiment: Antimicrobial activity against Candida albicans fungus at a dose of 120 microg; format: functional
BSC-1 [11] = experiment: In vitro cytotoxic activity against non-malignant african green monkey kidney cell-line (BSC-1); ranges from 4.5-5 mm; format: functional, Cercopithecidae
BSC-1 [12] = experiment: In vitro cytotoxic activity against non-malignant african green monkey kidney cell-line (BSC-1); ranges from 3.5-4.5 mm; format: functional, Cercopithecidae

Structure (SMILES) | IC50 (HCT-116) [µM] | IC50 (MCF7) [µM] | Excess zone radius (Candida albicans [1]) [mm] | HF2 (CHO [2]) | Excess zone radius (Trichophyton benhamiae) [mm] | Excess zone radius (Bacillus subtilis) [mm] | MIC (Candida albicans [3]) [µg/mL] | Excess zone radius (Escherichia coli) [mm] | IC50 (CHO [4]) [µM] | HF (CHO [5]) | Excess zone radius (Amorphotheca resinae) [mm] | Excess zone radius (Pseudomonas aeruginosa) [mm] | IC50 (P388) [µM] | IC50 (CHO [6]) [µM] | MIC (Candida albicans [7]) [µg/mL] | IC50 (CHO [8]) [µM] | HF (CHO [9]) | Excess zone radius (Candida albicans [10]) [mm] | Excess zone radius (BSC-1 [11]) [mm] | Excess zone radius (BSC-1 [12]) [mm]
O=C1c2ccccc2-c2nccc3c2c1nc1ccccc13 [BENZOSAMPANGINE] | > 350 | > 350 | 12 | 0.2 | 10 | 8 | 0.39 (≈ 1.38 µM) | 0 | 18 | 1 | 0 | 0 | 1.6 | 18 |  |  |  |  |  | 
Cc1c2c(nc3ccccc13)C(=O)c1ccccc1C2=O |  |  |  |  | 0 | 3 |  | 0 |  |  | 0 | 0 | 39 |  | 25 (≈ 91.5 µM) |  |  |  |  | 
O=C1c2cccnc2-c2nccc3c2c1nc1ccccc13 [ASCIDIDEMIN] | 0.3 | 0.3 |  | 1 | 0 | 14 |  | 10 | 0.03 |  | 10 | 0 | 0.4 |  |  | 0.3 | 10 | 11 | 4.5 | 
Cc1c2c(nc3ccccc13)C(=O)c1cccnc1C2=O |  |  | 1 |  | 0 | 10 |  | 0 |  |  | 6 | 0 | 56 |  |  |  |  |  |  | 3.5
